{"source": "patent US5760000A", "about": "(University Technologies International,Inc., priority 1994, dated 1998)", "key": {"[1]": {"molecular_target": "GnRH receptor (HepG2 membrane preparation)", "test": "GnRH in vitro binding to HepG2 membrane preparation (radioreceptor assay)", "design": "species or system human", "conditions": "Labeled ligand 125I-[D-Lys6]-GnRH; 95% confidence interval in parentheses; 4° C.", "experimental": "(§1) Cells were grown to confluence as previously described and harvested from the flasks by using a rubber policeman. The cells were washed in normal assay buffer (([…] Tris[hydroxymethyl] aminomethane[Tris]-HCl), containing 1 mM dithiothreitol and 0.5% BSA [fraction-V] (pH 7.6)) and precipitated by centrifugation at 500g for 5 minutes at 4° C.\n(§2) The cleaned cells were homogenized in 50 ml of freshly prepared ice cold 25 mM sucrose in assay buffer containing 1 mM Phenylmethanesulphonyl fluoride and 5 mM Ethylenediaminetetraacetic acid, using a glass TEFLON (polytetra-fluoroethylene) homogenizer, followed by centrifugation at 100 ×g for 5 minutes (4° C.). The supernatant was further centrifuged at 17,000×g for 30 minutes at 4° C., and the pellet (crude membrane preparation) washed briefly and resuspended in the assay buffer (approximately 40-50 μg membrane protein or approximately 1 x 10^6 cell equivalent per 100 μl).\n(§3) For protein determination, aliquots of crude membrane preparations were washed twice with double distilled water by centrifugation (25,000 ×g) and assayed for protein content, using BSA as the standard. The binding assay was carried out at 4° C.\n(§4) The displacement curves were fitted for both single and two classes of binding sites by computer calculated lines, as described.\n(§5) The potency of various GnRH-related peptides in terms of binding (equilibrium dissociation constant; kd) and growth suppression activity in the human hepatocarcinoma derived cell line HepG2 was studied. […] Data analysis was performed as described.\n(§6) Homologous displacement of GnRH-related peptides in membrane homogenates prepared from HepG2 cells and non-cancerous postmortem human liver tissue was studied. Values (mean ± SEM) represent specific binding [B/T, bound over total, in %] determined by subtraction of non-saturable binding in the presence of excess peptides (10^-5 M). Results were obtained from 5 to 7 separated experiments, each carried out in triplicate. The binding data were analyzed by computerized Scatchard analysis (LIGAND) according to Munson and Rodbard."}, "HuH-7 cells [2]": {"tested_on": "HuH-7 cells", "test": "3H-thymidine uptake in HuH-7 cells", "format": "cell-based, human", "conditions": "10^-7 M, time-related", "experimental": "(§7) […] 3H-thymidine (Amersham TRK.120, 102 mCi/mg) was added to each well and was incubated at 37° C. for 4 hours. The media containing unabsorbed 3H-thymidine was aspired off and the cells were washed twice with ice cold phosphate buffered saline (PBS). The cells were then fixed with 5% trichloro acetic acid (TCA) for 20 minutes and washed twice with double distilled water. The fixed cells were solubilized with 0.2 ml NCS tissue solubilizer (Amersham) and counted for radioactivity using a liquid scintillation counter (50% efficiency)."}, "[3]": {"molecular_target": "GnRH binding sites (normal rat liver)", "test": "GnRH in vitro binding to normal rat liver membrane preparation", "conditions": "Labeled ligand 125I-[D-Lys6]-GnRH; 95% confidence interval in parentheses; read-out: Receptor Binding Activity (Kd, nM) Normal Rat Liver", "experimental": "as §1, §2\n(§8) A similar protocol was used to prepare the membrane from fresh rat and frozen human postmortem liver. In all experiments the final membrane preparation was used in the radioreceptor assay within 45 minutes.\nas §3, §4"}, "HuH-7 cells [4]": {"tested_on": "HuH-7 cells", "test": "HuH-7 cell proliferation", "format": "cell-based, human", "conditions": "single administration at 10^-7 M, six days in culture", "experimental": "(§9) HepG2 or HuH-7 cells were maintained in 75-cm^2 flasks at 37° C. under a humidified atmosphere of 5% CO2 in modified Minimum Essential Medium (Gibco-BRL) supplemented with 10% fetal bovine serum, 200mM 1-Glutamine (1%), Penicillin (1000 IU/ml), streptomycin (100 μg/ml) and sodium bicarbonate (0.15%). Cells grown to confluence were harvested following mild trypsinization and wash (twice by slow centrifugation; 400 g for 10 minutes) in normal culture medium.\n(§10) Approximately 50,000 cells in 1.0 ml culture media were plated in 24 deep well plates (Flacon). This time was considered day -1. Cells were allowed to grow for one day. The growing cells were then treated with various hormones (at day 0) prepared aseptically in culture media immediately prior to addition. The final volume was maintained at 1 ml. The plates were then incubated at 37° C. for a period of 4 to 6 days, as described above.\n(§11) Cells in each well were harvested by removal of culture media and incubation with 0.5 ml 0.25% trypsin and 1.75 mM EDTA for 30 minutes at 37° C. Cells were then transferred into 1.5 ml microfuge tubes and centrifuged at 100g for 10 minutes. The supernatant was removed and the pellet was resuspended in a final volume of 200 μl of culture media containing 10% trypan blue.\nCells were then counted using a hemocytometer. […]"}, "[5]": {"molecular_target": "GnRH binding sites (normal human liver)", "test": "GnRH in vitro binding to non-cancerous postmortem human liver membrane preparation", "conditions": "Labeled ligand 125I-[D-Lys6]-GnRH; 95% confidence interval in parentheses; read-out: Receptor Binding Activity (Kd, nM) Normal Human Liver", "experimental": "as §1, §2, §8, §3, §4, §6"}, "HepG2 cells [6]": {"tested_on": "HepG2 cells", "test": "HepG2 cell proliferation (cell counting)", "format": "cell-based", "experimental": "as §9, §10, §11\nCells were then counted using a hemocytometer. The average cell mortality was less than 5.0% and was not different among different treatment groups. Each value represents the mean and standard error of several experiments (n>3), each carried out in quadruplicate incubations at each time point and hormone concentration.\nas §5\nThe effect of GnRH-related peptides on the proliferation of the human hepatoma derived cell line HepG2 was studied. Values (mean ± SEM) represent the percent change with respect to initial cell number at day 0 over a period of six days in culture.\nThe dose response curves were analyzed by a computerized, four parameter curve fitting program (ALLFIT) as described. The result of time-related response on cell proliferation was analyzed using a two-way ANOVA with multiple comparison means of using computerized statistical package (SYSTAT)."}, "HepG2 cells [7]": {"tested_on": "HepG2 cells", "test": "3H-thymidine uptake in HepG2 cells", "format": "cell-based, human", "experimental": "as §7\nThe effect of GnRH-related peptides on ^3 H-thymidine incorporation was tested to assess changes in DNA synthesis of HepG2 cells (FIGS. 7A and 7B). Methods used were as previous described."}}, "note": "Entries after “also recorded” stand apart in the source; their conditions may differ. Read-outs that look alike come from different tables or passages of the source.", "data": [{"compound": "CC(C)C[C@H](NC(=O)[C@@H](CCCCN)NC(=O)[C@H](Cc1ccc(O)cc1)NC(=O)[C@H](CO)NC(=O)[C@H](Cc1c[nH]c2ccccc12)NC(=O)[C@H](Cc1c[nH]cn1)NC(=O)[C@@H]1CCC(=O)N1)C(=O)N[C@@H](CCCNC(=N)N)C(=O)N1CCC[C@H]1C(=O)NCC(N)=O", "note": "[[D-Lys^6]-GnRH, pGlu-His-Trp-Ser-Tyr-DLys-Leu-Arg-Pro-Gly-NH2]", "values": [{"measurement": "Kd", "setting": "[1]", "value": 9.17, "unit": "nM"}, {"measurement": "3H-thymidine incorporation in HuH-7 cells", "setting": "HuH-7 cells [2]", "value": "blocked further ^3 H-thymidine incorporation above day 1 level"}, {"measurement": "Kd", "setting": "[3]", "value": 769, "unit": "nM"}, {"measurement": "Effect on HuH-7 cell proliferation", "setting": "HuH-7 cells [4]", "value": "significantly suppressed; also recorded: totally inhibited"}, {"measurement": "Kd", "setting": "[5]", "value": 3300, "unit": "nM"}, {"measurement": "Suppression of HepG2 growth ED50", "setting": "HepG2 cells [6]", "value": 2.00, "unit": "nM"}, {"measurement": "HepG2 doubling time", "setting": "HepG2 cells [6]; 10 nM, calculated over 4 days of growth", "value": "65 ± 4.9", "unit": "h"}, {"measurement": "HepG2 doubling time", "setting": "HepG2 cells [6]; 100 nM, calculated over 4 days of growth", "value": "77 ± 6.7", "unit": "h"}, {"measurement": "HepG2 doubling time", "setting": "HepG2 cells [6]; 1000 nM, growth phase, over 4 days of growth", "value": "105 ± 10.0", "unit": "h"}, {"measurement": "Effect on HepG2 cell proliferation, repeated administration", "setting": "HepG2 cells [6]; 10^-7 M every two days, six days in culture", "value": "significantly suppressed"}, {"measurement": "Reversal of HepG2 growth suppression after removing the peptide or adding GnRH antagonist", "setting": "HepG2 cells [6]; after three days of treatment", "value": "can not be reversed; also recorded: cannot be reversed"}, {"measurement": "Suppression of HepG2 growth ED50", "setting": "HepG2 cells [6]; calculated at day 4 of growth", "value": "2.00 ± 0.9", "unit": "nM"}, {"measurement": "Effect on HepG2 cell proliferation", "setting": "HepG2 cells [6]; single administration at 10^-7 M, six days in culture", "value": "significantly suppressed"}, {"measurement": "3H-thymidine incorporation in HepG2 cells", "setting": "HepG2 cells [7]; 10^-7 M, over 4 days of incubation", "value": "blocked further ^3 H-thymidine incorporation above the day 1 level"}, {"measurement": "ED50, inhibition of DNA synthesis (3H-thymidine incorporation) in HepG2 cells", "setting": "HepG2 cells [7]; after 72 hours in culture", "value": "0.18 ± 0.03", "unit": "nM"}, {"measurement": "ED50, inhibition of DNA synthesis (3H-thymidine incorporation) in HepG2 cells", "setting": "HepG2 cells [7]; after 96 hours in culture", "value": "0.14 ± 0.02", "unit": "nM"}]}]}
